Reference: ChEMBL document CHEMBL1201862, “PubChem BioAssay data set” (2004)
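Interpolation was linear, between the two tested concentrations surrounding the appropriate level; five concentrations were tested over 48 hours in 96-well plates. GI50 marks 50% less growth.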 The source made the active and inactive calls. No stated cut-off is given here; in the data, active = GI50 up to about 1.1 µM and inactive = higher.

How the values were obtained:
Assay in all cases: growth of human tumour cells (NCI), 48 h
786-0 = test system: 786-0
CCRF-CEM = test system: CCRF-CEM
HOP-62 = test system: HOP-62
IGROV-1 = test system: IGROV-1
LOX IMVI = test system: LOX IMVI
NCI-H226 = test system: NCI-H226
NCI-H23 = test system: NCI-H23
NCI-H460 = test system: NCI-H460
NCI-H522 = test system: NCI-H522
OVCAR-3 = test system: OVCAR-3
SK-MEL-2 = test system: SK-MEL-2
SN12C = test system: SN12C
SW-620 = test system: SW-620
TK-10 = test system: TK-10
U-251 = test system: U-251
UACC-62 = test system: UACC-62
UO-31 = test system: UO-31
HOP-92 = test system: HOP-92

CC(=O)Nc1ccc(/C=c2\sc3nnc(/C=C/c4ccccc4)n3c2=O)cc1
GI50 (786-0): > 50 µM (inactive) | GI50 (CCRF-CEM): > 50 µM (inactive) | GI50 (HOP-62): > 50 µM (inactive) | GI50 (IGROV-1): > 50 µM (inactive) | GI50 (LOX IMVI): > 50 µM (inactive) | GI50 (NCI-H226): > 50 µM (inactive) | GI50 (NCI-H23): > 50 µM (inactive) | GI50 (NCI-H460): > 50 µM (inactive) | GI50 (NCI-H522): > 50 µM (inactive) | GI50 (OVCAR-3): > 50 µM (inactive) | GI50 (SK-MEL-2): > 50 µM (inactive) | GI50 (SN12C): > 50 µM (inactive) | GI50 (SW-620): > 50 µM (inactive) | GI50 (TK-10): > 50 µM (inactive) | GI50 (U-251): > 50 µM (inactive) | GI50 (UACC-62): > 50 µM (inactive) | GI50 (UO-31): > 50 µM (inactive)

COC1CCC2C(=O)CCCC2O1 (stereo not drawn)
GI50 (786-0): > 100 µM (inactive) | GI50 (HOP-62): > 100 µM (inactive) | GI50 (HOP-92): > 100 µM (inactive) | GI50 (IGROV-1): > 100 µM (inactive) | GI50 (NCI-H226): > 100 µM (inactive) | GI50 (NCI-H23): > 100 µM (inactive) | GI50 (NCI-H460): > 100 µM (inactive) | GI50 (NCI-H522): > 100 µM (inactive) | GI50 (OVCAR-3): > 100 µM (inactive) | GI50 (SK-MEL-2): > 100 µM (inactive) | GI50 (SN12C): > 100 µM (inactive) | GI50 (SW-620): > 100 µM (inactive) | GI50 (TK-10): > 100 µM (inactive) | GI50 (U-251): > 100 µM (inactive) | GI50 (UACC-62): > 100 µM (inactive) | GI50 (UO-31): > 100 µM (inactive)

Cc1ccc(S(=O)(=O)/N=C(\NN)Nc2ccc(Cl)cc2)cc1
GI50 (786-0): > 100 µM (inactive) | GI50 (CCRF-CEM): > 100 µM (inactive) | GI50 (HOP-62): > 100 µM (inactive) | GI50 (HOP-92): > 100 µM (inactive) | GI50 (IGROV-1): > 100 µM (inactive) | GI50 (LOX IMVI): > 100 µM (inactive) | GI50 (NCI-H226): 58.3 µM (inactive) | GI50 (NCI-H23): > 100 µM (inactive) | GI50 (NCI-H460): > 100 µM (inactive) | GI50 (OVCAR-3): > 100 µM (inactive) | GI50 (SK-MEL-2): > 100 µM (inactive) | GI50 (SN12C): > 100 µM (inactive) | GI50 (SW-620): > 100 µM (inactive) | GI50 (TK-10): > 100 µM (inactive) | GI50 (U-251): > 100 µM (inactive) | GI50 (UACC-62): > 100 µM (inactive) | GI50 (UO-31): > 100 µM (inactive)

Cc1cccc(C(C)(C)C)c1NC(=O)CCl
GI50 (786-0): > 100 µM (inactive) | GI50 (CCRF-CEM): > 100 µM (inactive) | GI50 (HOP-62): > 100 µM (inactive) | GI50 (IGROV-1): > 100 µM (inactive) | GI50 (LOX IMVI): > 100 µM (inactive) | GI50 (NCI-H226): > 100 µM (inactive) | GI50 (NCI-H23): > 100 µM (inactive) | GI50 (NCI-H460): > 100 µM (inactive) | GI50 (NCI-H522): > 100 µM (inactive) | GI50 (OVCAR-3): > 100 µM (inactive) | GI50 (SK-MEL-2): > 100 µM (inactive) | GI50 (SN12C): > 100 µM (inactive) | GI50 (SW-620): > 100 µM (inactive) | GI50 (TK-10): > 100 µM (inactive) | GI50 (U-251): > 100 µM (inactive) | GI50 (UACC-62): > 100 µM (inactive) | GI50 (UO-31): > 100 µM (inactive)

CCOC(=O)Cc1c(Cc2[nH]c(C(=O)OCc3ccccc3)c(CC(=O)OCC)c2CC(=O)OCC)[nH]c(C(=O)OCc2ccccc2)c1CC(=O)OCC
GI50 (786-0): > 100 µM (inactive) | GI50 (CCRF-CEM): > 100 µM (inactive) | GI50 (HOP-62): > 100 µM (inactive) | GI50 (HOP-92): > 100 µM (inactive) | GI50 (IGROV-1): > 100 µM (inactive) | GI50 (NCI-H522): > 100 µM (inactive) | GI50 (OVCAR-3): > 100 µM (inactive) | GI50 (SN12C): > 100 µM (inactive) | GI50 (SW-620): > 100 µM (inactive) | GI50 (U-251): > 100 µM (inactive) | GI50 (UACC-62): > 100 µM (inactive) | GI50 (UO-31): 67.8 µM (inactive)

COC(=O)C1=C(C)N(NC(=O)c2ccccc2)C(C)(O)C12CCOC2=O (stereo not drawn)
GI50 (786-0): 0.195 µM (active) | GI50 (CCRF-CEM): > 100 µM (inactive) | GI50 (HOP-62): > 100 µM (inactive) | GI50 (IGROV-1): > 100 µM (inactive) | GI50 (LOX IMVI): > 100 µM (inactive) | GI50 (NCI-H226): > 100 µM (inactive) | GI50 (NCI-H23): > 100 µM (inactive) | GI50 (NCI-H460): > 100 µM (inactive) | GI50 (NCI-H522): > 100 µM (inactive) | GI50 (OVCAR-3): > 100 µM (inactive) | GI50 (SK-MEL-2): 0.608 µM (active) | GI50 (SN12C): > 100 µM (inactive) | GI50 (SW-620): > 100 µM (inactive) | GI50 (TK-10): > 100 µM (inactive) | GI50 (U-251): > 100 µM (inactive) | GI50 (UACC-62): > 100 µM (inactive) | GI50 (UO-31): > 100 µM (inactive)

CCc1cccc(C)c1NC(=O)C(=O)CC(=O)c1ccc(Cl)s1
GI50 (786-0): > 100 µM (inactive) | GI50 (CCRF-CEM): > 100 µM (inactive) | GI50 (HOP-62): > 100 µM (inactive) | GI50 (HOP-92): > 100 µM (inactive) | GI50 (IGROV-1): > 100 µM (inactive) | GI50 (LOX IMVI): > 100 µM (inactive) | GI50 (NCI-H226): > 100 µM (inactive) | GI50 (NCI-H23): > 100 µM (inactive) | GI50 (NCI-H460): > 100 µM (inactive) | GI50 (SK-MEL-2): > 100 µM (inactive) | GI50 (SN12C): > 100 µM (inactive) | GI50 (SW-620): > 100 µM (inactive) | GI50 (TK-10): > 100 µM (inactive) | GI50 (U-251): > 100 µM (inactive) | GI50 (UACC-62): > 100 µM (inactive) | GI50 (UO-31): > 100 µM (inactive)

CC(C)CCCC(C)[C@H]1CCC2[C@H]3C(CC[C@@]21C)[C@@]1(C)CCC=C[C@]12C[C@@H]2[C@@H]3O (stereo partly drawn)
GI50 (786-0): > 100 µM (inactive) | GI50 (CCRF-CEM): > 100 µM (inactive) | GI50 (HOP-62): > 100 µM (inactive) | GI50 (HOP-92): > 100 µM (inactive) | GI50 (IGROV-1): > 100 µM (inactive) | GI50 (LOX IMVI): > 100 µM (inactive) | GI50 (NCI-H226): > 100 µM (inactive) | GI50 (NCI-H460): > 100 µM (inactive) | GI50 (NCI-H522): > 100 µM (inactive) | GI50 (OVCAR-3): > 100 µM (inactive) | GI50 (SN12C): > 100 µM (inactive) | GI50 (SW-620): > 100 µM (inactive) | GI50 (TK-10): > 100 µM (inactive) | GI50 (U-251): > 100 µM (inactive) | GI50 (UACC-62): > 100 µM (inactive) | GI50 (UO-31): > 100 µM (inactive)
